Assays:
Conditions in all cases: 72 h
[1] = system: Vero E6; test: cell viability relative to DMSO; higher = less toxic
[2] = system: HepG2; test: as above
[3] = system: U2OS; test: as above
[4] = system: Caco-2; test: as above
[5] = system: Calu-3; test: as above
[6] = system: Vero E6; test: relative viability EC50 (midpoint between 100% and the lowest measured viability); higher = less toxic
[7] = system: HepG2; test: as above
[8] = system: U2OS; test: as above
[9] = system: Caco-2; test: as above
[10] = system: Calu-3; test: as above
[11] = system: Vero E6; test: drug sensitivity score (DSS) for viability; higher = more toxic; extreme values may be limits of the assay
[12] = system: HepG2; test: as above
[13] = system: U2OS; test: as above
[14] = system: Caco-2; test: as above
[15] = system: Calu-3; test: as above

## CCCCN1CCCC1CNC(=O)c1cc(C#N)c2ccccc2c1OC (stereo not given) [nafadotride]
[1]; 1 nM
  cell viability: 102%
[1]; 10 nM
  cell viability: 96.8%
[1]; 100 nM
  cell viability: 105%
[1]; 1000 nM
  cell viability: 100%
[1]; 10000 nM
  cell viability: 92.5%
[2]; 1 nM
  cell viability: 104%
[2]; 10 nM
  cell viability: 103%
[2]; 100 nM
  cell viability: 105%
[2]; 1000 nM
  cell viability: 97.5%
[2]; 10000 nM
  cell viability: 96.7%
[3]; 1 nM
  cell viability: 98.3%
[3]; 10 nM
  cell viability: 101%
[3]; 100 nM
  cell viability: 104%
[3]; 1000 nM
  cell viability: 101%
[3]; 10000 nM
  cell viability: 92.2%
[4]; 1 nM
  cell viability: 98.8%
[4]; 10 nM
  cell viability: 97.6%
[4]; 100 nM
  cell viability: 97.4%
[4]; 1000 nM
  cell viability: 104%
[4]; 10000 nM
  cell viability: 102%
[5]; 1 nM
  cell viability: 102%
[5]; 10 nM
  cell viability: 106%
[5]; 100 nM
  cell viability: 87.2%
[5]; 1000 nM
  cell viability: 105%
[5]; 10000 nM
  cell viability: 97.1%
[6]
  relative viability EC50: > 10 µM
[7]
  relative viability EC50: > 10 µM
[8]
  relative viability EC50: > 10 µM
[9]
  relative viability EC50: > 10 µM
[10]
  relative viability EC50: > 10 µM
[11]
  drug sensitivity score: 0
[12]
  drug sensitivity score: 0
[13]
  drug sensitivity score: 0
[14]
  drug sensitivity score: 0
[15]
  drug sensitivity score: 0

## CCC/N=C1\S/C(=C\c2ccc(OC[C@H](O)CO)c(Cl)c2)C(=O)N1c1ccccc1C [ponesimod]
[1]; 1 nM
  cell viability: 100%
[1]; 10 nM
  cell viability: 94%
[1]; 100 nM
  cell viability: 91.5%
[1]; 1000 nM
  cell viability: 91.5%
[1]; 10000 nM
  cell viability: 93.7%
[2]; 1 nM
  cell viability: 95.8%
[2]; 10 nM
  cell viability: 89.6%
[2]; 100 nM
  cell viability: 99.5%
[2]; 1000 nM
  cell viability: 102%
[2]; 10000 nM
  cell viability: 91.6%
[3]; 1 nM
  cell viability: 98.5%
[3]; 10 nM
  cell viability: 100%
[3]; 100 nM
  cell viability: 100%
[3]; 1000 nM
  cell viability: 101%
[3]; 10000 nM
  cell viability: 98.4%
[4]; 1 nM
  cell viability: 91.2%
[4]; 10 nM
  cell viability: 100%
[4]; 100 nM
  cell viability: 95.6%
[4]; 1000 nM
  cell viability: 99%
[4]; 10000 nM
  cell viability: 79.6%
[5]; 1 nM
  cell viability: 90.5%
[5]; 10 nM
  cell viability: 103%
[5]; 100 nM
  cell viability: 105%
[5]; 1000 nM
  cell viability: 105%
[5]; 10000 nM
  cell viability: 108%
[6]
  relative viability EC50: > 10 µM
[7]
  relative viability EC50: > 10 µM
[8]
  relative viability EC50: > 10 µM
[9]
  relative viability EC50: > 10 µM
[10]
  relative viability EC50: > 10 µM
[11]
  drug sensitivity score: 0
[12]
  drug sensitivity score: 0
[13]
  drug sensitivity score: 0
[14]
  drug sensitivity score: 0.7
[15]
  drug sensitivity score: 0

## CN1CCc2c(c3ccccc3n2Cc2ccccc2)C1 [mebhydrolin]
[1]; 1 nM
  cell viability: 106%
[1]; 10 nM
  cell viability: 99.4%
[1]; 100 nM
  cell viability: 99.9%
[1]; 1000 nM
  cell viability: 94.1%
[1]; 10000 nM
  cell viability: 89.6%
[2]; 1 nM
  cell viability: 94.3%
[2]; 10 nM
  cell viability: 102%
[2]; 100 nM
  cell viability: 106%
[2]; 1000 nM
  cell viability: 77%
[2]; 10000 nM
  cell viability: 94.2%
[3]; 1 nM
  cell viability: 96.5%
[3]; 10 nM
  cell viability: 102%
[3]; 100 nM
  cell viability: 98.5%
[3]; 1000 nM
  cell viability: 98.2%
[3]; 10000 nM
  cell viability: 95.3%
[4]; 1 nM
  cell viability: 90.3%
[4]; 10 nM
  cell viability: 92.8%
[4]; 100 nM
  cell viability: 90.4%
[4]; 1000 nM
  cell viability: 101%
[4]; 10000 nM
  cell viability: 100%
[5]; 1 nM
  cell viability: 106%
[5]; 10 nM
  cell viability: 95.8%
[5]; 100 nM
  cell viability: 106%
[5]; 1000 nM
  cell viability: 104%
[5]; 10000 nM
  cell viability: 104%
[6]
  relative viability EC50: > 10 µM
[7]
  relative viability EC50: > 10 µM
[8]
  relative viability EC50: > 10 µM
[9]
  relative viability EC50: > 10 µM
[10]
  relative viability EC50: > 10 µM
[11]
  drug sensitivity score: 0
[12]
  drug sensitivity score: 3.1
[13]
  drug sensitivity score: 0
[14]
  drug sensitivity score: 0
[15]
  drug sensitivity score: 0

From the supplement of paper PMC13380429
